# Data taken from patent US9315519B2, “Guanidine substituted tetrahydroisoquinoline compounds as factor XIa inhibitors” (BRISTOL-MYERS SQUIBB COMPANY, priority 2012, dated 2016).
# pKi: −log10 of the molar value. Counter-ions that a name gives are not always drawn.
# Target: purified human Factor XIa (Homo sapiens (Human), UniProt P03951)
# Assay: Factor XIa enzyme inhibition assay (chromogenic substrate S-2366)
# Type: biochemical
# Conditions: substrate S-2366, pH 7.4
# Protocol: The effectiveness of compounds of the present invention as inhibitors of the coagulation factors XIa, VIIa, IXa, Xa, XIIa, plasma kallikrein or thrombin, can be determined using a relevant purified serine protease, respectively, and an appropriate synthetic substrate. The rate of hydrolysis of the chromogenic or fluorogenic substrate by the relevant serine protease was measured both in the absence and presence of compounds of the present invention. […] A decrease in the rate of absorbance or fluorescence change in the presence of inhibitor is indicative of enzyme inhibition. Such methods are known to one skilled in the art. The results of this assay are expressed as the inhibitory constant, Ki.
# Factor XIa determinations were made in 50 mM HEPES buffer at pH 7.4 containing 145 mM NaCl, 5 mM KCl, and 0.1% PEG 8000 (polyethylene glycol; JT Baker or Fisher Scientific). Determinations were made using purified human Factor XIa at a final concentration of 75-200 pM (Haematologic Technologies) and the synthetic substrate S-2366 (pyroGlu-Pro-Arg-pNA; CHROMOGENIX® or AnaSpec) at a concentration of 0.0002-0.001 M.
# The Michaelis constant, Km, for substrate hydrolysis by each protease, was determined at 25° C. using the method of Lineweaver and Burk. Values of Ki were determined by allowing the protease to react with the substrate in the presence of the inhibitor. Reactions were allowed to go for periods of 20-180 minutes (depending on the protease) and the velocities (rate of absorbance or fluorescence change versus time) were measured. The following relationships were used to calculate Ki values: (vo−vs)/vs=I/(Ki(1+S/Km)) for a competitive inhibitor with one binding site; or vs/vo=A+((B−A)/1+((IC50/(I)n))); and Ki=IC50/(1+S/Km) for a competitive inhibitor where: […]
# purified human Factor XIa, sequence (P03951 388-625): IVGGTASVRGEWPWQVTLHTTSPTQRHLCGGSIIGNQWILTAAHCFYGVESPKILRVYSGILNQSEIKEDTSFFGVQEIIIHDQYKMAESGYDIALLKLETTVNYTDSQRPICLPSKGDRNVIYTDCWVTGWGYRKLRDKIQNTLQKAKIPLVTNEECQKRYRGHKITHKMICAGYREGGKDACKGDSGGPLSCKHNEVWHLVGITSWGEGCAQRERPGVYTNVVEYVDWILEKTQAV
# purified human Factor XIa, sequence (P03951 19-387 partner): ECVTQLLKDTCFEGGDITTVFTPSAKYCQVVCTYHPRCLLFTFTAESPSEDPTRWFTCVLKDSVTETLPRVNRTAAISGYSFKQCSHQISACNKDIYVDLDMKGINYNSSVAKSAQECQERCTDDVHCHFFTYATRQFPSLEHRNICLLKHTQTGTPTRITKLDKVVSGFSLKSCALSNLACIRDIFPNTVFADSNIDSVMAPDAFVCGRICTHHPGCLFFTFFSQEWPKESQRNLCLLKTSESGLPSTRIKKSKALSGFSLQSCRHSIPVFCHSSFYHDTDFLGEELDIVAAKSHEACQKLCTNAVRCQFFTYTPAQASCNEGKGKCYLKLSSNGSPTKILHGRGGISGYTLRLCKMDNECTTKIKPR
row,pKi,SMILES
1,> 8.30,"CN1CCN(c2cccc3c2CCN(C(=O)C2CC4(CCN(C(=N)N)CC4)C2)[C@@H]3C(=O)Nc2ccc(C(=O)O)cc2)C(=O)C1 [Example 18, (S)-4-(2-(7-carbamimidoyl-7-azaspiro[3.5]nonane-2-carbonyl)-5-(4-methyl-2-oxopiperazin-1-yl)-1,2,3,4-tetrahydroisoquinoline-1-carboxamido)benzoic acid, bis HCl Salt]"
2,6.42,"CN1CCN(c2cccc3c2CCN(C(=O)CC2CCN(C(=N)N)CC2)[C@H]3C(=O)Nc2ccc(C(=O)O)cc2)C(=O)C1 [Example 19, (R)-4-(2-(2-(1-carbamimidoylpiperidin-4-yl)acetyl)-5-(4-methyl-2-oxopiperazin-1-yl)-1,2,3,4-tetrahydroisoquinoline-1-carboxamido)benzoic acid, bis-HCl Salt]"
3,8.25,"COC1CCN(c2cccc3c2CCN(C(=O)C2CCN(C(=N)N)CC2)C3C(=O)Nc2ccc(C(=O)O)cc2)CC1 (stereo not drawn) [Example 24, 4-(2-(1-carbamimidoylpiperidine-4-carbonyl)-5-(4-methoxypiperidin-1-yl)-1,2,3,4-tetrahydroisoquinoline-1-carboxamido)benzoic acid, bis-TFA salt]"

# Second part, the compound before the results:
row,SMILES,pKi
1,"N=C(N)N1CCc2nc(C(=O)N3CCc4c(Br)cccc4C3C(=O)Nc3ccc(C(=O)O)cc3)sc2C1 (stereo not drawn) [Example 1, 4-(5-bromo-2-(5-carbamimidoyl-4,5,6,7-tetrahydrothiazolo[5,4-c]pyridine-2-carbonyl)-1,2,3,4-tetrahydroisoquinoline-1-carboxamido)benzoic acid, TFA Salt]",7.04
2,"COC1CCN(c2cccc3c2CCN(C(=O)c2nc4c(s2)CN(C(=N)N)CC4)C3C(=O)Nc2ccc(C(=O)O)cc2)CC1 (stereo not drawn) [Example 5, 4-(2-(5-carbamimidoyl-4,5,6,7-tetrahydrothiazolo[5,4-c]pyridine-2-carbonyl)-5-(4-methoxypiperidin-1-yl)-1,2,3,4-tetrahydroisoquinoline-1-carboxamido)benzoic acid, TFA salt]",> 8.30
3,"COC1CCN(c2cccc3c2CCN(C(=O)C2CC4(CCNCC4)C2)C3C(=O)Nc2ccc(C(=O)O)cc2)CC1 (stereo not drawn) [Example 12, 4-(5-(4-methoxypiperidin-1-yl)-2-(7-azaspiro[3.5]nonane-2-carbonyl)-1,2,3,4-tetrahydroisoquinoline-1-carboxamido)benzoic acid, bis TFA Salt]",6.72
